The values that follow come from patent US11406640B2, “JAK1 pathway inhibitors for the treatment of chronic lung allograft dysfunction” (Incyte Corporation, priority 2019, dated 2022).

Each structure is given as a SMILES string. Entries after “also recorded” stand apart in the source; their conditions may differ. Where two headings read alike, the source gives them in different places.

Assay [1] has as its system patients with aGVHD. The settings on record: human, in vivo, cited from earlier work.
The subject of assay [2] is alloreactive mouse model (GVHD). The settings on record: prophylactic and therapeutic dosing, 60 mg/kg per day or 120 mg/kg per day; cited from earlier work.
Assay [3] has as its target human JAK2 (Homo sapiens (Human), UniProt O60674). The assay is described as follows: In vitro JAK kinase assay (Example A), JAK2. The settings on record: JAK2/JAK1 IC50 ratio, 1 mM ATP. The format is biochemical. The protocol:
The compounds in Table 2 were tested in this assay and shown to have the IC50 values in Table 2.

Assay [4] deals with human JAK1 (Homo sapiens, UniProt P23458). The assay is described as follows: In vitro JAK kinase assay (Example A), JAK1. The class given is biochemical. Conditions: 1 mM ATP. From the text:
In some embodiments, the JAK1 pathway inhibitor is a compound of Table 2, or a pharmaceutically acceptable salt thereof.

In assay [5] the test system is patients with post-lung transplant BOS. The settings on record: switching from cyclosporine to tacrolimus; cited from earlier work.
Assay [6] deals with patients with BOS after lung transplantation. Conditions: cited from earlier work.
Assay [7] concerns patients with cGVHD. Conditions: human, in vivo; cited from earlier work.
The test system of assay [8] is patients with lung cGVHD. The settings on record: response defined by an increase in FEV1 of ≥10%; cited from earlier work.
Assay [9] concerns pediatric patients with lung cGVHD. The settings on record: cited from earlier work.
Assay [10] has as its system patients with post-lung transplant BOS. The settings on record: patients with an FEV1 response vs those without; cited from earlier work.
The test system of assay [11] is post-lung transplant BOS. Conditions: prophylactic, compared to placebo; cited from earlier work.

The IC50 is the concentration that gives 50% inhibition. The low end stands for greater potency in that assay, the high end for weaker potency in that assay.

Sequence of human JAK2 (O60674 828-1132): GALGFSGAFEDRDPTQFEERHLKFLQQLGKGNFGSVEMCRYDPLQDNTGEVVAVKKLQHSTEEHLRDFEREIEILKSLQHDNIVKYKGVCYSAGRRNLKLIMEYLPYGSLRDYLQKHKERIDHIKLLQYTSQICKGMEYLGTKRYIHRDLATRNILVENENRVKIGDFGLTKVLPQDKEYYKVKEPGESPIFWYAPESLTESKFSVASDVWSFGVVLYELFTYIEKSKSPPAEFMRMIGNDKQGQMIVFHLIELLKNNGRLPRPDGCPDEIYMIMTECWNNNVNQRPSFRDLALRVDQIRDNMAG

`N#CCC1(n2cc(-c3ncnc4[nH]ccc34)cn2)CN(C2CCN(C(=O)c3ccnc(C(F)(F)F)c3F)CC2)C1` [Compound 1, {1-{1-[3-Fluoro-2-(trifluoromethyl)isonicotinoyl]piperidin-4-yl}-3-[4-(7H-pyrrolo[2,3-d]pyrimidin-4-yl)-1H-pyrazol-1-yl]azetidin-3-yl}acetonitrile]: in assay [1] (listed as itacitinib), the “clinical efficacy in acute GVHD” value is recorded as “demonstrated clinical efficacy; also recorded: significant clinical activity”. The GVHD score entry in [2] was “improvement in the GVHD score”. The JAK2/JAK1 in assay [3] is given as above 10. The same molecule registered an IC50 in assay [4] below 10 nM.
Consider `C=CC[C@@H]1/C=C(\C)C[C@H](C)C[C@H](OC)[C@H]2O[C@@](O)(C(=O)C(=O)N3CCCC[C@H]3C(=O)O[C@H](/C(C)=C/[C@@H]3CC[C@@H](O)[C@H](OC)C3)[C@H](C)[C@@H](O)CC1=O)[C@H](C)C[C@@H]2OC` [tacrolimus], for which the “loss of predicted FEV1” value in assay [5] is on record as “decrease in the loss of predicted FEV1”.
On to `CC(C)(O)c1ccccc1CC[C@@H](SCC1(CC(=O)O)CC1)c1cccc(/C=C/c2ccc3ccc(Cl)cc3n2)c1` [Montelukast], for which the “effect on lung function decline” value in assay [6] (overall cohort, 30 patients randomized vs placebo) is listed as “no effect on lung function decline”. In addition, the “decline of FEV1” value in [6] (post-hoc subanalysis of BOS grade 1 patients, absolute and predicted FEV1) is “attenuated further decline of FEV1”.
Consider `N#CC[C@H](C1CCCC1)n1cc(-c2ncnc3[nH]ccc23)cn1` [ruxolitinib], for which, in assay [1], the “clinical efficacy in acute GVHD” value is listed as “demonstrated clinical efficacy”. In addition, the “clinical efficacy in chronic GVHD” value in assay [7] is “produced clinical efficacy”. Further, the “patients with FEV1 responses” value in assay [8] is listed as 4 out of 5. The “increase in FEV1” value in assay [9] (1 patient) is 9%. In addition, the responses in [9] (5 pediatric patients (4 evaluable)) is listed as 2. Further, the “decrease of the steroid requirement” value in assay [9] (final patient) is on record as above 50%. Besides, the “patients able to wean steroids completely” value in assay [9] (human, in vivo) is reported as “Four out of five”.
Turning to `CC[C@H]1OC(=O)[C@H](C)[C@@H](O[C@H]2C[C@@](C)(OC)[C@@H](O)[C@H](C)O2)[C@H](C)[C@@H](O[C@@H]2O[C@H](C)C[C@H](N(C)C)[C@H]2O)[C@](C)(O)C[C@@H](C)CN(C)[C@H](C)[C@@H](O)[C@]1(C)O` [Azithromycin], the overall survival entry in [10] was “overall survival advantage”. In assay [11], the “cases of BOS” value is on record as “fewer cases of BOS” and the overall survival result is “overall survival was not affected”.
